Tests used:
[1] = target: T1, human MR (Homo sapiens, UniProt P08235); assay: Mineralocorticoid Receptor Binding Assay ([3H]-aldosterone); details: [3H]-aldosterone binding, human MR expressed in Sf9 cells; read-out: MR Ki
T1 construct: The full length human MR gene is cloned from a human kidney or human brain cDNA library; His tag from the pAcHLT vector (own knowledge); made in house; host or cells: Sf9 insect cells (baculovirus, pAcHLT transfer vector)
T1 sequence (P08235 1-984): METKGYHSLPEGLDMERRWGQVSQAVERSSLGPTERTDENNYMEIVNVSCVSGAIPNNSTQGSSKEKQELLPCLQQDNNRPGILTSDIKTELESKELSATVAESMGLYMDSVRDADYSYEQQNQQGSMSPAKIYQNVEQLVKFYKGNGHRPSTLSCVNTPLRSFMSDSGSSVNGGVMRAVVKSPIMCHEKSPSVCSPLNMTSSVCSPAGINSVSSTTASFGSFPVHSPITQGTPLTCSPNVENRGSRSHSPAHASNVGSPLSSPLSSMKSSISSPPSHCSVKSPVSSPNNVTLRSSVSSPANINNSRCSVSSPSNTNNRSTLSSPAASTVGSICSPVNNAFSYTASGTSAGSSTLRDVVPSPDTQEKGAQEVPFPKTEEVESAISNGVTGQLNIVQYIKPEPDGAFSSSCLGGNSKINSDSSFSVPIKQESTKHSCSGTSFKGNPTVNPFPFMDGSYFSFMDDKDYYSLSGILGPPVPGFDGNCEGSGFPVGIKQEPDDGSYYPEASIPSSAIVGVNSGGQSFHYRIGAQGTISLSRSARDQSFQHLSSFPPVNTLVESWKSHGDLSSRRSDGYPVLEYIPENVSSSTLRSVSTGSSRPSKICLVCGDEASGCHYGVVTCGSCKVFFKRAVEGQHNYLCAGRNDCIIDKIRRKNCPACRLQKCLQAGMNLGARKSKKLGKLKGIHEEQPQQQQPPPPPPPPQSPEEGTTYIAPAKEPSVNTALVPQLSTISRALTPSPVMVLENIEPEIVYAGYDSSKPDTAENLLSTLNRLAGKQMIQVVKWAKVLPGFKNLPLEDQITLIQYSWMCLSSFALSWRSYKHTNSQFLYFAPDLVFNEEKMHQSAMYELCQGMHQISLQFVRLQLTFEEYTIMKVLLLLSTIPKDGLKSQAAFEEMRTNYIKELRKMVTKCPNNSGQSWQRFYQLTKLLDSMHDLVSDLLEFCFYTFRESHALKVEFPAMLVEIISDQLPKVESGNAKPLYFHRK
Summary of the method: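 Lysate supernatant of Sf9 cells expressing full-length human MR (20-25 μg protein) was incubated with 0.5 nM [3H]-aldosterone and test compound in molybdate/Tris/phosphate/glycerol buffer, pH 7.5, ~16 h at 4 °C. Bound ligand was filtered and counted by scintillation; IC50 is the concentration halving [3H]-aldosterone binding.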

[2] = target: T2, glucocorticoid receptor (Homo sapiens, UniProt P04150); assay: Glucocorticoid Receptor Binding Assay ([3H]-dexamethasone, A549 cell extract); details: [3H]-dexamethasone binding, read-out: GR Ki
T2 construct: containing 50-200 ug of A549 cell extract and 1.86 nM [^3H]-dexamethasone; host or cells: A549 human lung epithelial cells (sonicated cell extract)
T2 sequence (P04150 1-777): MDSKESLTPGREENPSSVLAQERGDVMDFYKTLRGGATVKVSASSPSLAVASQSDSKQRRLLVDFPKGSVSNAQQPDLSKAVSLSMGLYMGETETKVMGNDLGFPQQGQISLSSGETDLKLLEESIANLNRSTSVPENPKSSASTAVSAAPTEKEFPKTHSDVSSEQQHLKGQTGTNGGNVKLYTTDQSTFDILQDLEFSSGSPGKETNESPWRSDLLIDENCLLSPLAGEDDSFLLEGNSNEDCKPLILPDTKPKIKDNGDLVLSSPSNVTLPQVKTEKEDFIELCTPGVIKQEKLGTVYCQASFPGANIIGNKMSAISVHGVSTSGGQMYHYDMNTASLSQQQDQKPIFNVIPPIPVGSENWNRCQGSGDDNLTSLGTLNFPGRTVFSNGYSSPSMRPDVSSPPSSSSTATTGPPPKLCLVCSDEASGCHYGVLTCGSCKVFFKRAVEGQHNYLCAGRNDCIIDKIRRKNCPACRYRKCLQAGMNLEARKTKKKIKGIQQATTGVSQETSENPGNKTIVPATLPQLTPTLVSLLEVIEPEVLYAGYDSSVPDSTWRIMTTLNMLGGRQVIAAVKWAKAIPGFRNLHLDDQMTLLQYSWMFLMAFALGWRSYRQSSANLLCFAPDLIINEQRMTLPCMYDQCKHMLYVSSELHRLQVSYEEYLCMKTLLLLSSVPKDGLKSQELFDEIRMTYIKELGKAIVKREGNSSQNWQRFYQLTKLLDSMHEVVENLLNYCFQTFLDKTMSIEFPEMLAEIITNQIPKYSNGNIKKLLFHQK
Summary of the method: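 A549 cell extract (50–200 ug) incubated with 1.86 nM [3H]-dexamethasone and test compound for 16 h at 4 °C in Tris-HCl pH 7.2 buffer with glycerol and molybdate. Unbound radioligand removed by dextran-coated charcoal, then supernatant bound counts measured by scintillation.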

SMILES	Ki [1]	Ki [2]
Oc1cccc(C=C2c3ccccc3CCc3ccccc32)c1 [Example 57, 3-(10,11-Dihydro-dibenzo[a,d]cyclohepten-5-ylidenemethyl)-phenol]	< 500 nM	< 500 nM
FC(F)c1ccc(C=C2c3ccccc3CCc3ccccc32)cc1 [Example 73, 5-(4-Difluoromethyl-benzylidene)-10,11-dihydro-5H-dibenzo[a,d]cycloheptene]	< 500 nM	< 1000 nM
OCc1cccc(C=C2c3ccccc3CCc3ccccc32)c1 [Example 75, [3-(10,11-Dihydro-dibenzo[a,d]cyclohepten-5-ylidenemethyl)-phenyl]-methanol]	< 500 nM	< 500 nM
OCc1ccc(C=C2c3ccccc3CCc3ccccc32)cc1 [Example 76, [4-(10,11-Dihydro-dibenzo[a,d]cyclohepten-5-ylidenemethyl)-phenyl]-methanol]	< 1000 nM	< 500 nM
O/N=C/c1ccccc1C=C1c2ccccc2CCc2ccccc21 [Example 77, 2-(10,11-Dihydro-dibenzo[a,d]cyclohepten-5-ylidenemethyl)-benzaldehyde oxime]	< 500 nM	< 500 nM
O/N=C/c1cccc(C=C2c3ccccc3CCc3ccccc32)c1 [Example 78, 3-(10,11-Dihydro-dibenzo[a,d]cyclohepten-5-ylidenemethyl)-benzaldehyde oxime]	< 500 nM	< 1000 nM
O/N=C/c1ccc(C=C2c3ccccc3CCc3ccccc32)cc1 [Example 79, 4-(10,11-Dihydro-dibenzo[a,d]cyclohepten-5-ylidenemethyl)-benzaldehyde oxime]	< 500 nM	< 500 nM
N#Cc1ccc(C=C2c3ccccc3CCc3ccccc32)cc1 [Example 82, 4-(10,11-Dihydro-dibenzo[a,d]cyclohepten-5-ylidenemethyl)-benzonitrile]	< 500 nM	< 1000 nM
NC(=O)c1cccc(C=C2c3ccccc3CCc3ccccc32)c1 [Example 84, 3-(10,11-Dihydro-dibenzo[a,d]cyclohepten-5-ylidenemethyl)-benzamide]	< 500 nM	< 10000 nM
NC(=O)c1ccc(C=C2c3ccccc3CCc3ccccc32)cc1 [Example 85, 4-(10,11-Dihydro-dibenzo[a,d]cyclohepten-5-ylidenemethyl)-benzamide]	< 500 nM	< 500 nM
CS(=O)(=O)Nc1cccc(C=C2c3ccccc3CCc3ccccc32)c1 [Example 90, N-[3-(10,11-Dihydro-dibenzo[a,d]cyclohepten-5-ylidenemethyl)-phenyl]-methanesulfonamide]	< 500 nM	< 500 nM
Cc1nc(S(=O)(=O)Nc2cccc(C=C3c4ccccc4CCc4ccccc43)c2)cn1C [Example 96, 1,2-Dimethyl-1H-imidazole-4sulfonic acid [3-(10,11-dihydro-dibenzo[a,d]cyclohepten-5-ylidenemethyl)-phenyl]-amide]	< 500 nM	< 10000 nM
CCCS(=O)(=O)Nc1cccc(C=C2c3ccccc3CCc3ccccc32)c1 [Example 104, Propane-1-sulfonic acid [3-(10,11-dihydro-dibenzo[a,d]cyclohepten-5-ylidenemethyl)-phenyl]-amide]	< 500 nM	< 500 nM
CCCCS(=O)(=O)Nc1cccc(C=C2c3ccccc3CCc3ccccc32)c1 [Example 105, Butane-1-sulfonic acid [3-(10,11-dihydro-dibenzo[a,d]cyclohepten-5-ylidenemethyl)-phenyl]-amide]	< 500 nM	< 500 nM
CCS(=O)(=O)Nc1ccc(C=C2c3ccccc3CCc3ccccc32)cc1 [Example 106, Ethanesulfonic acid [4-(10,11-dihydro-dibenzo[a,d]cyclohepten-5-ylidenemethyl)-phenyl]amide]	< 500 nM	< 500 nM
CCCS(=O)(=O)Nc1ccc(C=C2c3ccccc3CCc3ccccc32)cc1 [Example 108, Propane-1-sulfonic acid [4-(10,11-dihydro-dibenzo[a,d]cyclohepten-5-ylidenemethyl)-phenyl]-amide]	< 500 nM	< 500 nM
CCCCS(=O)(=O)Nc1ccc(C=C2c3ccccc3CCc3ccccc32)cc1 [Example 109, Butane-1-sulfonic acid [4-(10,11-dihydro-dibenzo[a,d]cyclohepten-5-ylidenemethyl)-phenyl]-amide]	< 500 nM	< 500 nM
CC(C)CS(=O)(=O)Nc1cccc(C=C2c3ccccc3CCc3ccccc32)c1 [Example 110, 2-Methyl-propane-1-sulfonic acid [3-(10,11-dihydro-dibenzo[a,d]cyclohepten-5-ylidenemethyl)-phenyl]-amide]	< 500 nM	< 500 nM
CN(C)S(=O)(=O)Nc1cccc(C=C2c3ccccc3CCc3ccccc32)c1 [Example 112, Dimethylsulfamic acid [3-(10,11-dihydro-dibenzo[a,d]cyclohepten-5-ylidenemethyl)-phenyl]-amide]	< 500 nM	< 500 nM
CN(C)S(=O)(=O)Nc1ccc(C=C2c3ccccc3CCc3ccccc32)cc1 [Example 113, Dimethylsulfamic acid [4-(10,11-dihydro-dibenzo[a,d]cyclohepten-5-ylidenemethyl)-phenyl]-amide]	< 500 nM	< 500 nM
CC(=O)Nc1cccc(C=C2c3ccccc3CCc3ccccc32)c1 [Example 114, N-[3-(10,11-Dihydro-dibenzo[a,d]cyclohepten-5-ylidenemethyl)-phenyl]-acetamide]	< 500 nM	< 500 nM
CNc1cccc(C=C2c3ccccc3CCc3ccccc32)c1 [Example 118, [3-(10,11-Dihydro-dibenzo[a,d]cyclohepten-5-ylidenemethyl)-phenyl]-methyl-amine]	< 500 nM	< 500 nM
CNc1ccccc1C=C1c2ccccc2CCc2ccccc21 [Example 120, [2-(10,11-Dihydro-dibenzo[a,d]cyclohepten-5-ylidenemethyl)-phenyl]-methyl-amine]	< 500 nM	< 10000 nM
CN(C)c1ccccc1C=C1c2ccccc2CCc2ccccc21 [Example 121, [2-(10,11-Dihydro-dibenzo[a,d]cyclohepten-5-ylidenemethyl)-phenyl]-dimethyl-amine]	< 500 nM	< 10000 nM
CS(=O)(=O)Nc1cccc(CC2c3ccccc3CCc3ccccc32)c1 [Example 125, N-[3-(10,11-Dihydro-5H-dibenzo[a,d]cyclohepten-5-ylmethyl)-phenyl]-methanesulfonamide]	< 500 nM	< 500 nM
NC(=O)Nc1cccc(C=C2c3ccccc3CCc3ccccc32)c1 [Example 128, [3-(10,11-Dihydro-dibenzo[a,d]cyclohepten-5-ylidenemethyl)-phenyl]-urea]	< 500 nM	< 1000 nM
